Assay results as given in BindingDB's records for doi:10.1021/jm00082a020 (Bristol-Myers Squibb Pharmaceutical Research Institute, 1992).

Experiment: In vitro ability to displace the specific binding of [3H]diltiazem to diltiazem receptor in guinea pig skeletal muscle.
With `CCc1ccc([C@@H]2Cc3c(cccc3C(F)(F)F)N(CCN(C)C)C(=O)[C@@H]2C)cc1` the Kd was 1000 nM. `CNc1ccc([C@@H]2Cc3c(cccc3C(F)(F)F)N(CCN(C)C)C(=O)[C@@H]2C)cc1` gave a Kd of 570 nM. With `CNCCN1C(=O)[C@H](OC(C)=O)[C@H](c2ccc(OCCOC)cc2)Cc2c1cccc2C(F)(F)F` the Kd was 5800 nM. Work on `COc1ccc([C@@H]2Cc3c(ccc(Br)c3OC)N(CCN(C)C)C(=O)[C@@H]2C)cc1` yielded a Kd of 120 nM. Work on `COc1ccc([C@@H]2Cc3c(OC)cccc3N(CCN(C)C)C(=O)[C@@H]2C)cc1` yielded a Kd of 400 nM. Work on `CNC(=O)CN1C(=O)[C@H](OC(C)=O)[C@H](c2ccc(OC)cc2)Cc2c1cccc2C(F)(F)F` yielded a Kd of 15000 nM. Work on `COc1ccc([C@@H]2Cc3c(cccc3C(F)(F)F)N(CC(C)N(C)C)C(=O)[C@@H]2C)cc1` (stereo partly specified) yielded a Kd of 320 nM. `CCCN(C)CCN1C(=O)[C@H](OC(C)=O)[C@H](c2ccc(OC)cc2)Cc2c1cccc2C(F)(F)F` gave a Kd of 520 nM. With `COc1ccc([C@@H]2Cc3c(cccc3C(F)(F)F)N(CC[N+](C)(C)C)C(=O)[C@@H]2C)cc1` the Kd was 840 nM. Compound `C[C@H]1C(=O)N(CCN(C)C)c2cccc(C(F)(F)F)c2C[C@H]1c1ccc(O)cc1` has a Kd of 1600 nM. `COc1ccc([C@@H]2Cc3c(cccc3C(F)(F)F)N(CCN(C)C)C(=O)[C@@H]2C)cc1OC` gave a Kd of 2000 nM. In the case of `CSc1ccc([C@@H]2Cc3c(cccc3C(F)(F)F)N(CCN(C)C)C(=O)[C@@H]2C)cc1`, the Kd is reported as 1100 nM. Work on `CCC[C@H]1C(=O)N(CCN(C)C)c2ccccc2C[C@H]1c1ccc(OC)cc1` yielded a Kd of 250 nM. In the case of `COc1ccc([C@@H]2Cc3c(cccc3C(F)(F)F)N(CCN(C)C(C)=O)C(=O)[C@@H]2O)cc1`, the Kd is reported as 13000 nM. In the case of `COc1ccc([C@@H]2Cc3ccccc3N(CCN(C)C)C(=O)[C@@H]2OC(C)=O)cc1`, the Kd is reported as 5100 nM. With `COc1ccc([C@@H]2Cc3c(cccc3C(F)(F)F)N(CCN(C)C)C(=O)[C@@H]2O)cc1` the Kd was 660 nM. In the case of `C=CCN(C)CCN1C(=O)[C@H](OC(C)=O)[C@H](c2ccc(OC)cc2)Cc2c1cccc2C(F)(F)F`, the Kd is reported as 420 nM. With `COc1ccc([C@@H]2Cc3c(ccc(Br)c3OC)N(CCN(C)C)C(=O)[C@@H]2OC(C)=O)cc1` the Kd was 120 nM. Work on `CC[C@H]1C(=O)N(CCN(C)C)c2cccc(C(F)(F)F)c2C[C@H]1c1ccc(OC)cc1` yielded a Kd of 600 nM. `C#CCN(C)CCN1C(=O)[C@H](OC(C)=O)[C@H](c2ccc(OC)cc2)Cc2c1cccc2C(F)(F)F` showed a Kd of 1800 nM. With `COc1ccc([C@@H]2Cc3c(cccc3C(F)(F)F)N(CCN(C)C(C)C)C(=O)[C@@H]2C)cc1` the Kd was 130 nM. With `COc1ccc([C@@H]2Cc3c(OC)cccc3N(CCN(C)C)C(=O)[C@@H]2OC(C)=O)cc1` the Kd was 1800 nM. Work on `CNCCN1C(=O)[C@H](OC(C)=O)[C@H](c2ccc(OC)cc2)Cc2c1cccc2C(F)(F)F` yielded a Kd of 160 nM. `COc1ccc([C@@H]2Cc3c(cccc3C(F)(F)F)N(CCN(C)CCCCc3ccccc3)C(=O)[C@@H]2OC(C)=O)cc1` showed a Kd of 220 nM. `COc1ccc([C@@H]2Cc3c(C(=O)OCc4ccccc4)cccc3N(CCN(C)C)C(=O)[C@@H]2OC(C)=O)cc1` gave a Kd of 1400 nM.

Experiment: as above
Remark: another data set of the same source
`COc1ccc([C@@H]2Cc3c(cccc3C(F)(F)F)N(C(C)CN(C)C)C(=O)[C@@H]2C)cc1` (stereo partly specified) showed a Kd of 540 nM.
